In assay [1] the target is MST3 (Homo sapiens, UniProt Q9Y6E0). Briefly: 33P-radiolabeled kinase assay. The format is biochemical.
Assay [2] has as its system CDK1. Conditions: cited from earlier work.
In assay [3] the test system is CDK2. Conditions: cited from earlier work.

For orientation: IC50 means the concentration that gives 50% inhibition. Read a low IC50 as higher potency.

Sequence of MST3 (Q9Y6E0 1-431 isoform Q9Y6E0-2): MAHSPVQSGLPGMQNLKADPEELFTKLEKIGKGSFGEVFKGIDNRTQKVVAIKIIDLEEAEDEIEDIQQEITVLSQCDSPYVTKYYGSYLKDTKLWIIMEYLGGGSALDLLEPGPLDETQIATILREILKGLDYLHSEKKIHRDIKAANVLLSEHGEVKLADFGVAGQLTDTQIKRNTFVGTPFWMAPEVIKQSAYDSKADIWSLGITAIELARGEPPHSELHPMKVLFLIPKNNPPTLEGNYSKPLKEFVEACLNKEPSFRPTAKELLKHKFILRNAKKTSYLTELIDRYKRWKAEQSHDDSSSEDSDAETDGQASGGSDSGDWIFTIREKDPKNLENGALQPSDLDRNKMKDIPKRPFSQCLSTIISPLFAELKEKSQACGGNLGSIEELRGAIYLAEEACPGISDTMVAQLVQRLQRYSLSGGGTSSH

As to `COCCOc1ccc2c(c1)ncn2-c1ccc2cccc(N3CCC(N)CC3)c2n1` [CP-673451], the IC50 in assay [1] stood at 0.26 µM.

The molecule `COc1cc(Nc2c(C#N)cnc3cc(OCCCN4CCN(C)CC4)c(OC)cc23)c(Cl)cc1Cl` [bosutinib] displayed an IC50 in assay [1] of 0.003 µM.

With `CCN(CC)CCNC(=O)c1c(C)[nH]c(/C=C2\C(=O)Nc3ccc(F)cc32)c1C` [sunitinib], in assay [1] (less active than the related compound(s) of the same scaffold), the “fold difference in MST3 inhibitory activity” value was 20 fold.

As for CDK1/2 inhibitor III, the “activity against CDK1” value in assay [2] is recorded as “sub-nanomolar”. Further, the “activity against CDK2” value in assay [3] is “sub-nanomolar”.

The values above are taken from article PMC7771544 (ChemMedChem, 2016).
